Here are results for 10 compounds from patent US7361675B2, “1,2,4-thiadiazole compounds and use thereof” (Sumitomo Chemical Company Limited, priority 2002, dated 2008).

In series [1] the test system is silverleaf whitefly (Bemisia argentifolii). Nature of the series: Test Example 3: silverleaf whitefly on cabbage (foliar scattering). To be noted: 168 h, 20 ml/cup on cabbage 8 days after egg laying, seven days after scattering, read-out: insecticidal rate. It counts as in vivo. The procedure:
A preparation prepared from each of the compounds (1), (2), (5), (6), (8), (9), (16), (77) and (78) of the present invention and the comparative compound (A) according to Formulation Example 5 was diluted with water so that the concentration of the compound of the present invention became 500 ppm to obtain a test scattering solution.
On the other hand, soil was filled in polyethylene cups, cabbage was planted in each cup, and grown until its first foliage leaves developed, and leaves other than a first foliage leaves were removed. About 200 imagoes of silverleaf whitefly (Bemisia argentifolii) were released on this cabbage for about 24 hours, and had them lay eggs on the cabbage first foliage leaf.
The thus obtained cabbage on which about 80 to 100 eggs of silverleaf whitefly (Bemisia argentifolii) were laid was allowed to stand in a greenhouse for 8 days, and the aforementioned test scattering solution was scattered at a ratio of 20 ml/cup. Seven days after scattering, the number of alive insects was examined, and an insecticidal rate was calculated.

Series [2] has as its system western flower thrips (Frankliniella occidentalis). Nature of the series: Test Example 2: western flower thrips damage on treated cucumber leaf. Format: in vivo. To be noted: 500 ppm, 20 ml/cup on cucumber, cut first foliage leaf, 30 larvae, after seven days. The procedure: A preparation prepared from each of the compound (1) of the present invention and a comparative compound (A) according to Formulation Example 5 was diluted with water so that the concentration of the compound of the present invention became 500 ppm to obtain a test scattering solution. On the other hand, soil was filled into polyethylene cups, cucumber was planted in each cup, and grown until its first foliage leaves developed. The aforementioned test scattering solution was scattered on the cucumber at a ratio of 20 ml/cup, and the scattered solution on the surface of the leaf was dried. The first foliage leaf was cut off, placed on a filter (diameter 70 mm) impregnated with water in a polyethylene cup (diameter 110 mm), 30 larvae of western flower thrips (Frankliniella occidentalis) were released thereon, and the polyethylene cup was closed with a lid. After seven days, a damage degree of the cucumber leaf by western flower thrips (Frankliniella occidentalis) was examined.

As usually defined, the melting point is the temperature of the solid-liquid transition. On to `CC#CCOc1nsc(-c2cccc(F)c2)n1` [compound (6), 5-(3-fluorophenyl)-3-(2-butynyloxy)-1,2,4-thiadiazole], for which the melting point is 68.7 °C. In series [1], the pest or weed control at 500 ppm was at least 90%.

`CC#CCOc1nsc(-c2ccccc2)n1` [compound (2), 5-phenyl-3-(2-butynyloxy)-1,2,4-thiadiazole] yielded a melting point of 70.3 °C. The pest or weed control at 500 ppm in series [1] is at least 90%.

`CC#CCOc1nsc(-c2ccccc2Cl)n1` [compound (8), 5-(2-chlorophenyl)-3-(2-butynyloxy)-1,2,4-thiadiazole]: the pest or weed control at 500 ppm in series [1] is at least 90%.

The compound `C#CCOc1nsc(-c2ccccc2)n1` [compound (1), 5-phenyl-3-propargyloxy-1,2,4-thiadiazole] displayed a melting point of 66.9 °C. Further, the pest or weed control at 500 ppm in series [1] was at least 90%. Also, the “damage area rate by western flower thrips in the treated leaf” value in series [2] was at most 5%.

In the case of `CC#CCOc1nsc(-c2cccc(F)c2F)n1` [compound (16), 5-(2,3-difluorophenyl)-3-(2-butynyloxy)-1,2,4-thiadiazole], the pest or weed control at 500 ppm in series [1] is at least 90%.

For `CC#CCOc1nsc(-c2ccccc2F)n1` [compound (5), 5-(2-fluorophenyl)-3-(2-butynyloxy)-1,2,4-thiadiazole], in series [1], the pest or weed control at 500 ppm was at least 90%.

Take `CC#CCOc1nsc(-c2cccc(Cl)c2)n1` [compound (9), 5-(3-chlorophenyl)-3-(2-butynyloxy)-1,2,4-thiadiazole]: the pest or weed control at 500 ppm in series [1] was at least 90%.

For the compound `C#CCOc1nnc(-c2ccccc2)s1` [comparative compound (A), reference compound], in series [1], the pest or weed control at 500 ppm was at most 30%. Moreover, the “damage area rate by western flower thrips in the treated leaf” value in series [2] was at least 20%.

On to `CCC#CCOc1nsc(-c2ccccc2Cl)n1` [compound (77), 5-(2-chlorophenyl)-3-(2-pentynyloxy)-1,2,4-thiadiazole], for which the pest or weed control at 500 ppm in series [1] is at least 90%.

`CCC#CCOc1nsc(-c2cccc(Cl)c2)n1` [compound (78), 5-(3-chlorophenyl)-3-(2-pentynyloxy)-1,2,4-thiadiazole]: the pest or weed control at 500 ppm in series [1] was at least 90%.
